According to patent publication US8637461B2, “Method of diagnosing and treating oxidative stress-impaired wound healing” (Kuwait University, priority 2011, dated 2014):

What was measured:
[1] = Body weight and fasting plasma parameters in diabetic and hypercortisolemic rats; format: in vivo, rat
Protocol: (§1) All animal procedures were performed in accordance with the NIH Guidance for the Care and Use of Laboratory Animals. The current study used, respectively the GK and Dexamethasone-treated rats as models for diabetes and hypercortisolemia. Dexamethasone was administered subcutaneously at a dose of 2.5 μg/kg body weight in the morning (8:00 AM) and in the evening (8:00 PM) for a duration of four weeks before wounding and this form of therapy continued during the course of healing. […] Weight and age-matched female Wistar rats (Kuwait University breeding colony) served as the corresponding controls. All of the animals were maintained under standard conditions with 12 hours on/off light cycle, commercial diet, and water ad libitum. GK rats destined for wounding were initially matched with regard to body weight (e.g., 230 to 250 g), and plasma levels of glucose, free fatty acids and insulin. These indices are commonly used to reflect the severity of the diabetic state.
(§2) Animals used for IGF-1 sensitivity (n=6/group) and wound healing (n=8) studies were partitioned into five study groups including control, diabetic, hypercortisolemic, diabetic+EUK and hypercortisolemic+EUK. The EUK-134 was administered for duration of four weeks before wound induction and it continued during the course of healing.

[2] = system: IRS-1; experiment: IRS-1 Tyr612 phosphorylation, immunoprecipitation/western blotting in dermal fibroblasts; format: cell-based, rat
Protocol: (§3) Primary dermal fibroblasts were obtained from dorsal skin of female Goto Kakizaki (GK, age 12-15 months) rats, a model for non-obese type 2 diabetes, and their Wistar control counterparts. After sterilization in povidine solution, rat skin was washed in sterile water and rinsed in 70% ethanol in PBS. Epidermis and dermis were separated following overnight incubation in 0.25% trypsine/EDTA at 4 C. Dermis was cut into small pieces and incubated in Dulbecco's modified Eagle medium (DMEM; Invitrogen) containing collagenase (250 U/ml; Sigma) for thirty min at 37 C in 5% CO2 with constant agitation. The sections were triturated vigorously to release fibroblasts, which were collected by centrifugation. The cell pellet was washed two times with PBS, re-suspended in complete medium (DMEM supplemented with 10% fetal calf serum, penicillin (100 U/ml), streptomycin (100 μg/ml)), 2 mM L-glutamine and 10 mM HEPES) and then cultured under a standard condition.
(§4) A hypercortisolemic state was mimicked by exposing control fibroblasts to dexamethasone (Dexa, Sigma) administered at 20 ng/ml every other day for a duration of 8 days. Similarly, the state of low-grade inflammation in fibroblasts was recapitulated experimentally by exposing these cells to TNF-α (4 ng/ml every day for 4 days). […] The concentration of IGF-1 (50 ng/ml, Peprotech) was determined by prior dose response experiment.
Levels/activities of key intracellular molecules in the IGF-1 signaling cascade including IRS-1, IRS-1 Tyr-p-612, PI3K-p85α, IRS-1 Ser-p (307), PI3K, Akt, p-Akt, INK and p-JNK were assessed using western blotting/immunoprecipitation and commercially available ELISA-based assays.
Ice-cold radioimmunoprecipitation assay (RIPA) buffer was used for the extraction of proteins from fibroblasts. Immunoprecipitation was achieved by incubating cell homogenates with anti-IRS-1 antibody overnight at 4° C. followed by the addition of protein A/G-Agarose for additional two hours. Immunoprecipitates were separated using spin-collection filters (Cytosignal), washed once with RIPA buffer/3× with PBS and then elutated by the addition of Laemmli buffer. […] Antigen-antibody complexes were visualized by an enhanced chemiluminescence system on BioMax Light Film (Kodack) and then the densitometry was analyzed using Quantity One 1-D image software (BioRad, GS 800). All densitometry data were corrected for equal loading using the house keeping gene β-actin and they were expressed as fold change vs. control.

[3] = system: reactive oxygen species (ROS); experiment: ROS generation in cultured fibroblasts (DCF-DA); format: cell-based, rat; conditions: fibroblasts with diabetic, inflammatory or hypercortisolemia phenotypes; ROS suppressors
Protocol: as §3, §4
ROS generation in cultured fibroblasts was evaluated using dichloroflurescein-diacetate (DCF-DA, Molecular Probes), a probe that is oxidized to the fluorescent product DCF upon exposure to hydrogen peroxide, peroxynitrite, hydroxyl radical and nitric oxide. Its concentration serves as an indicator of the overall degree of intracellular oxidative stress.
Cells seeded in 96-well plates were incubated for thirty minutes at 37 C in serum free media containing 5 μM of DCF-DA. The plates were then washed twice with Krebs Ringer Buffer (KR) and the fluorescence readings were taken every 15 min for 1 hr at Ex=485 and Em=530. Subtracted background values were obtained from wells containing DCF-DA without cells. […]

[4] = system: dermal fibroblasts; experiment: BrdU cell proliferation assay in fibroblasts; format: cell-based, rat
Protocol: as §3, §4
(§5) The proliferation and collagen synthesis of cultured fibroblasts were determined using, respectively the 5-bromo-2-deoxyuridine (BrdU) incorporation into DNA and a radiolabelled proline uptake assay.
Cells were seeded into 96-microtiter plates at a concentration of 1.5×10^4 and allowed to adhere overnight in DMEM supplemented with 10% FCS. After arrest by incubation in DMEM supplemented with 0.5% FCS for 24 hrs, cells were exposed to IGF-I (50 ng/ml) in DMEM containing […] 5-bromo-2-deoxyuridine (BrdUrd). Incorporation of BrdUrd into DNA was estimated using 5-bromo-2-deoxyuridine labeling and detection kit (Roche Applied Science) according to the manufacturer's instructions.

[5] = Rapid insulin sensitivity test (RIST) with IGF-1 instead of insulin; format: in vivo, rat
Protocol: as §1, §2
IGF-1 sensitivity in control, diabetic and hypercortisolemic animals was determined using the rapid insulin sensitivity test (RIST) with IGF-1 (200 μg/kg BW) infused instead of insulin. The RIST index is the amount of glucose per kg body weight required to maintain euglycemia following a bolus of insulin (50 mU/kg BW).

[6] = system: excisional wounds; experiment: Full-thickness excisional wound healing, 7 days; format: in vivo, rat; conditions: diabetic/hypercortisolemic rat wounds, antioxidant administered
Protocol: as §1, §2
Animals derived from various experimental groups were anesthetized by ip, injection of 90 mg ketamine+10 mg xylazine/kg body weight, and their back skin was shaved, depilated with Nair and cleaned with 70% alcohol. Six bilateral full-thickness excisional wounds (8 mm in diameter) at equidistant from midline were created on the dorso-rostral back skin. Wounds were separated by a minimum of 1 cm of uninjured skin. […] The wound area was analyzed using Adobe PhotoShop (version 7.0; Adobe Systems) and the percentage of wound closure was derived by the following formula: (1−[current wound size/initial wound size])×100.

[7] = system: PI3K-p85α / IRS-1; experiment: Co-precipitation of PI3K p85α with IRS-1 in dermal fibroblasts; format: cell-based, rat; conditions: fibroblasts exposed to IGF-1
Protocol: as §3, with “The cell pellet was washed two times with PBS, re-suspended in complete medium (DMEM supplemented with 10% fetal calf serum, penicillin (100 U/ml), streptomycin (100 μg/ml)), 2 mM L-glutamine and 10 mM HEPES) and then cultured under a standard condition.” left out
(§6) A hypercortisolemic state was mimicked by exposing control fibroblasts to dexamethasone (Dexa, Sigma) administered at 20 ng/ml every other day for a duration of 8 days. […] The concentration of IGF-1 (50 ng/ml, Peprotech) was determined by prior dose response experiment.
(§7) Levels/activities of key intracellular molecules in the IGF-1 signaling cascade including IRS-1, IRS-1 Tyr-p-612, PI3K-p85α, IRS-1 Ser-p (307), PI3K, Akt, p-Akt, INK and p-JNK were assessed using western blotting/immunoprecipitation and commercially available ELISA-based assays. […]

[8] = system: PI3K; experiment: PI3K ELISA kinase assay on fibroblast lysates; format: cell-based, rat; conditions: fibroblasts exposed to IGF-1
Protocol: as §3, §6
PI3K activity was measured using PI3K ELISA (Echelon Biosciences Inc). […]

[9] = system: Akt; experiment: Akt phosphorylation, western blotting in dermal fibroblasts; format: cell-based, rat; conditions: normal fibroblasts exposed to IGF-1; western blot
Protocol: as §3, with “The cell pellet was washed two times with PBS, re-suspended in complete medium (DMEM supplemented with 10% fetal calf serum, penicillin (100 U/ml), streptomycin (100 μg/ml)), 2 mM L-glutamine and 10 mM HEPES) and then cultured under a standard condition.” left out
as §6, §7

[10] = system: Akt; experiment: Akt phosphorylation, FACE cell-based ELISA in fixed fibroblasts; parameters: species or system rat; conditions: normal fibroblasts exposed to IGF-1
Protocol: as §3, with “The cell pellet was washed two times with PBS, re-suspended in complete medium (DMEM supplemented with 10% fetal calf serum, penicillin (100 U/ml), streptomycin (100 μg/ml)), 2 mM L-glutamine and 10 mM HEPES) and then cultured under a standard condition.” left out
as §6
Activation of Akt and JNK was analyzed in fixed fibroblasts using FACE-Akt and FACE-JNK (both from Active Motife). […] Labeling with antibodies was conducted according to the manufacturer's protocol and the resulting phosphoantibody signal was calculated after correction for number of cells and total Akt or JNK levels in each sample. […]

[11] = system: dermal fibroblasts; experiment: Radiolabelled proline uptake assay (collagen synthesis) in fibroblasts; format: cell-based, rat; conditions: control fibroblasts, IGF-1
Protocol: as §3, with “The cell pellet was washed two times with PBS, re-suspended in complete medium (DMEM supplemented with 10% fetal calf serum, penicillin (100 U/ml), streptomycin (100 μg/ml)), 2 mM L-glutamine and 10 mM HEPES) and then cultured under a standard condition.” left out
as §6, §5
A radiolabel proline uptake assay was used in the quantification of the rate of collagen synthesis in cultured fibroblasts derived from various experimental groups. […]

[12] = diabetic patients, cited from earlier work
[13] = Wistar rats, dexamethasone 2.5 μg/kg sc twice daily (hypercortisolemia model)
[14] = fibroblasts with diabetic, inflammatory or hypercortisolemia phenotypes, ROS suppressors

C[C@@H]1C[C@H]2[C@@H]3CCC4=CC(=O)C=C[C@]4(C)[C@@]3(F)[C@@H](O)C[C@]2(C)[C@@]1(O)C(=O)CO [Dexa, dexamethasone]
FBG (fasting blood glucose) [1, 13]: 78 ± 9 mg/dL | FFA (free fatty acid) [1, 13]: 706 ± 25 µM | FPI (fasting plasma insulin) [1, 13]: 0.78 ± 0.061 ng/mL

O=C(O)CCCCC1CCSS1 (stereo not drawn) [α-lipoic acid]
common defect in IGF-1 signaling [2, 14]: correct the common defect in IGF-1 signaling | HSOS (oxidative stress) [3]: lessen the HSOS | impairment in key fibroblast functions (collagen synthesis, cell proliferation, migration, contraction) [4, 14]: ameliorates | improvement of glucose metabolism in response to bolus injection of IGF-1 ([5]; diabetic/hypercortisolemic rats, chronic administration of antioxidant): about 20% | healing rates of wounds [6]: statistically indistinguishable from control rat wounds treated with IGF-1 alone | abnormalities regarding lipid and carbohydrate profiles ([1]; diabetic and hypercortisolemic rats, chronic treatment with ROS suppressors): ameliorated

IGF-1
phosphorylation of Tyr612 on IRS-1 ([2]; control fibroblasts exposed to IGF-1 (50 ng/ml)): induces rapid phosphorylation | PI3K activation (p85α co-precipitated with IRS-1) [7]: activates PI3K | PI3K enzymatic activity [8]: increases PI3K enzymatic activity | Akt phosphorylation [9]: phosphorylated (activated) | Akt phosphorylation [10]: phosphorylated (activated) | increase in BrdU incorporation compared with medium only control ([4]; control fibroblasts, IGF-1 50 ng/ml, 24 hours): ~5 fold | reduction of IGF-1 action in inducing DNA synthesis ([4]; diabetic fibroblasts): about 46% | reduction of IGF-1 action in inducing DNA synthesis ([4]; hypercortisolemic fibroblasts): ~36% | increase in collagen synthesis [11]: about 63% | glucose metabolized in response to bolus injection of IGF-1 (RIST) ([5]; rats with diabetic complications or chemically-induced hypercortisolemia): about 125 mg glucose per kg body weight | glucose metabolized in response to bolus injection of IGF-1 (RIST) ([5]; untreated rats): 175 mg glucose per kg | glucose metabolism response to IGF-1 ([12]; 26 pmol continuous infusion): virtually no response | decrease of response to IGF-1 relative to healthy adults ([12]; 52 pmol continuous infusion): ~40%
